Experiments:
[1] = test system: GFP-RFP-LC3 HeLa cell line; experiment: GFP-RFP-LC3 HeLa autophagy reporter cell assay (fluorescence microscopy); type: cell-based, human; details: for number of red foci (autolysosomes): 10.0 μM, 6 hours, compared to negative control (DMSO)
Description: The GFP-RFP-LC3 HeLa cell line (Settembre et al, Science, 2011) was cultured in DMEM (Dulbecco's Modified Eagle's Medium, Sigma, D7777) containing 4500 mg/l glucose, 10% heat inactivated FCS (Merck), 40 μg/ml gentamycin (Hungaropharma) and 600 μg/ml G418 (Sigma, G8168). Drug candidates […]-0696, […]-7132 and […]-1567 were obtained from the ENAMINE molecule bank. 3×10^4 cells were plated onto 13 mm diameter poly-D-lysine coated coverslips in 24-well plates (Greiner) with 24 hours before the treatment. […] As controls, 0.1 and 1% DMSO, 200 nM rapamycin (autophagy inductor) and 100 nM bafilomycin A1 (an autophagy inhibitor) were used. For fluorescence microscopy, cells were fixed in 4% paraformaldehyde (Taab) and mounted in mowiol 4.88 (Polysciences) supplemented with bis-benzimide (Sigma) for nuclei staining. 5 epifluorescent pictures were taken in each condition by a BX51 microscope (Olympus) fitted with a FluoViewII camera and the AnalysisPro software (Olympus), using a 60×/1.4 oil Plan objective and the appropriate filter sets (DAPI: BP330-385/DM400/BA420; GFP: BP460-500/DM505/BP510-560; RFP: BP480-550/DM570/BA590). […] RFP: red fluorescence protein-autolysosome (mature autophagic compartment) GFP: green fluorescence protein Atg8: Autophagy-related protein 8-the most frequently used marker for autophagy Yellow: RFP and GFP (merged)-autophagosome (the primary autophagic structure)

[2] = test system: Drosophila melanogaster transgenic for an mCherry:Atg8 reporter (fat body); experiment: mCherry:Atg8 reporter in fat body of Drosophila L3 larvae; type: in vivo; details: L3 larva, 1.0 uM, 2 hours
Description: Flies with the genotype of hsFlp:pAct<CD2<Gal4, UAS-nlsGFP, r4:mCherry:Atg8a were used. Microscopic images were taken from the fat body of wandering larvae at the L3 stage. Note that in well-fed larvae at the same stage, no autophagic activity is visible. 2 hours before the test, 90-94 hours larvae were transferred onto yeast suspension (0.5 g yeast extract 2.5 ml water, homogenization and boiling). […] Larvae were cultured in this medium for 2 hours. Preparation of fat bodies was performed in PBS solution. For covering, 8:2 ratio of glycerine:PBS was used (supplemented with 10 mM Hoechst solution).
Imaging was taken with a Zeiss AxioImager Z1 fluorescence microscope, supplemented with Apotome semiconfocal setup, 400× magnification, the same exposition time.
Examining T544-1567 (inhibitor), hsFlp; pAct<CD2<Gal4, UAS-nlsGFP, r4:mCherry:Atg8a flies were crossed with animals of yw; (EP)EDTP^EY22967 genotype (the autophagy antagonist EDTP/Jumpy is clonally overexpressed in fat body).
Cells with overactivated EDTP/Jumpy are in green due to the presence of the GFP transgene. Blue colour (DAP staining) indicates the nuclei (DNA). Red dots (mCherry:Atg8) indicate autophagy structures (autophagosomes+autolysosomes). […]

mice (pancreas, liver) = experiment: Autophagic activity in mouse organs by electron microscopy; type: in vivo; details: 50 uMol intraperitoneal, 2.5 hours
Description: 50 uMol of effective molecules were dissolved in 10% DMSO and were administered intraperitoneously. After 2.5 hours the animals were sacrificed and their organs removed. The organs were transferred to tissue cultivating solution.
The organs were prepared for electronmicroscopic studies by standard preparation techniques. The ultrathin slices were prepared using Reichert-Jung Ultracut-E type ultramicrotome. The slides were investigated by JEM Jeol 1011 electron microscope.

| SMILES | number of red foci (autolysosomes) [1] | autophagy activity (autolysosome accumulation) ([1]; larger dose, 50 uM) | accumulation of autophagosomes (yellow foci), fusion with lysosomes blocked ([1]; 100 nM bafilomycin A1, 6 hours) | red dots (mCherry:Atg8 autophagy structures) in fat body [2] | autophagic activity (autophagosomes and autolysosomes) in liver (mice (pancreas, liver)) | autophagic activity (autophagosomes and autolysosomes) in pancreas (mice (pancreas, liver)) |
| --- | --- | --- | --- | --- | --- | --- |
| O=C1C([N-]S(=O)(=O)c2ccc([N+](=O)[O-])cc2)=C([n+]2c[nH]c3ccccc32)C(=O)c2ccccc21 [T0501-7132] | induces the accumulation the autolysosomes | markedly elevated activity |  |  |  |  |
| CO/C1=C\C(C)=C\[C@@H](C)[C@@H](O)[C@@H](C)C/C(C)=C/C=C/[C@H](OC)[C@@H]([C@@H](C)[C@@H](O)[C@H](C)[C@@]2(O)C[C@@H](O)[C@H](C)[C@@H](C(C)C)O2)OC1=O [Bafilomycin A1, reference compound] |  |  | yellow foci accumulate in large quantities |  |  |  |
| CC(Sc1nc2ccccc2c(=O)n1C1CCCC1)C(=O)N1CCc2ccccc21 (stereo not shown) [T558-0696] | increases the number of red foci (autolysosomes) |  |  | increased number of red dots | pronounced autophagic activity | pronounced autophagic activity |

Source: patent publication US20160346283A1, “Various Compounds as Autophagy Stimulants” (Velgene 3 Limited, priority 2013, published 2016)
